Laboratory results from PubChem BioAssay (NCI).
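Test compounds were applied to cells in 96-well plates for 48 hours at 5 doses. At the GI50, growth is halved. TGI: total growth inhibition.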

Legend:
Test in all cases: NCI-60 cell line screen, 48 h
BT-549 breast = test system: BT-549 breast
HS 578T breast = test system: HS 578T breast
HCC-2998 colon = test system: HCC-2998 colon
786-0 renal = test system: 786-0 renal
PC-3 prostate = test system: PC-3 prostate
SW-620 colon = test system: SW-620 colon
RXF 393 renal = test system: RXF 393 renal
OVCAR-5 ovarian = test system: OVCAR-5 ovarian
A498 renal = test system: A498 renal
LOX IMVI melanoma = test system: LOX IMVI melanoma
HT29 colon = test system: HT29 colon
KM12 colon = test system: KM12 colon
SF-295 CNS = test system: SF-295 CNS
NCI-H460 lung = test system: NCI-H460 lung
MALME-3M melanoma = test system: MALME-3M melanoma
OVCAR-8 ovarian = test system: OVCAR-8 ovarian
TK-10 renal = test system: TK-10 renal
IGROV1 ovarian = test system: IGROV1 ovarian
SK-MEL-2 melanoma = test system: SK-MEL-2 melanoma
NCI-H226 lung = test system: NCI-H226 lung
MOLT-4 leukemia = test system: MOLT-4 leukemia
SF-539 CNS = test system: SF-539 CNS
SF-268 CNS = test system: SF-268 CNS
MDA-MB-435 = test system: MDA-MB-435
SNB-75 CNS = test system: SNB-75 CNS

C=C1CC[C@@H]2[C@]3(C)COC(c4cn[nH]c4-c4cccc(Br)c4)O[C@@H]3CC[C@@]2(C)[C@@H]1C/C=C1/C(=O)OCC1O (stereo not given in full)
GI50 (BT-549 breast): 1.44 µM
TGI (BT-549 breast): 3 µM
GI50 (HS 578T breast): 5.27 µM
TGI (HS 578T breast): 59.4 µM
GI50 (HCC-2998 colon): 1.87 µM
TGI (HCC-2998 colon): 3.53 µM
GI50 (786-0 renal): 1.92 µM
TGI (786-0 renal): 3.6 µM
GI50 (PC-3 prostate): 3.07 µM
TGI (PC-3 prostate): 11.6 µM
GI50 (SW-620 colon): 2.22 µM
TGI (SW-620 colon): 5.05 µM
GI50 (RXF 393 renal): 1.81 µM
TGI (RXF 393 renal): 3.26 µM
GI50 (OVCAR-5 ovarian): 2.14 µM
TGI (OVCAR-5 ovarian): 4.72 µM
GI50 (A498 renal): 20.8 µM
TGI (A498 renal): 35.4 µM
GI50 (LOX IMVI melanoma): 1.39 µM
TGI (LOX IMVI melanoma): 2.7 µM
GI50 (HT29 colon): 2.1 µM
TGI (HT29 colon): 4.82 µM
GI50 (KM12 colon): 2.44 µM
TGI (KM12 colon): 6.13 µM
GI50 (SF-295 CNS): 1.83 µM
TGI (SF-295 CNS): 3.99 µM
GI50 (NCI-H460 lung): 2.43 µM
TGI (NCI-H460 lung): 6.29 µM
GI50 (MALME-3M melanoma): 1.93 µM
TGI (MALME-3M melanoma): 4.25 µM
GI50 (OVCAR-8 ovarian): 1.88 µM
TGI (OVCAR-8 ovarian): 6.17 µM
GI50 (TK-10 renal): 5.1 µM
TGI (TK-10 renal): 18.9 µM
GI50 (IGROV1 ovarian): 2.72 µM
TGI (IGROV1 ovarian): 6.46 µM
GI50 (SK-MEL-2 melanoma): 2.55 µM
TGI (SK-MEL-2 melanoma): 5.59 µM
GI50 (NCI-H226 lung): 1.62 µM
TGI (NCI-H226 lung): 3.09 µM
GI50 (MOLT-4 leukemia): 2.29 µM
TGI (MOLT-4 leukemia): 18.7 µM
GI50 (SF-539 CNS): 1.74 µM
TGI (SF-539 CNS): 3.22 µM
GI50 (SF-268 CNS): 12.6 µM
TGI (SF-268 CNS): 40.3 µM
GI50 (MDA-MB-435): 3.4 µM
TGI (MDA-MB-435): 14.1 µM
GI50 (SNB-75 CNS): 2.45 µM
TGI (SNB-75 CNS): 7.86 µM
